Experiments:
BACE1 [1] = target: T1, BACE1 (Homo sapiens (Human), UniProt P56817); assay: In vitro enzymatic BACE1 FRET assay; type: biochemical; conditions: pH 4.5, 1 h pre-incubation, read-out: BACE1 Enzyme IC50
Method: (§1) In Vitro Enzymatic BACE1 and BACE2 FRET (Fluorescence Resonance Energy Transfer) Assays
(§2) The cDNAs for both human recombinant BACE1 and 2 with C-terminal 6-His Tags were cloned into transient protein expression vectors, which were subsequently transfected into mammalian cell lines. These recombinant proteins were further purified using Ni-NTA affinity chromatography (Qiagen). The assay buffer used in these screens was 0.05 M acetate, pH 4.5, 8% DMSO final, 100 μM genapol (which is a nonionic detergent, below its Critical Micelle Concentration). The β-secretase enzyme (0.02 nM for BACE1 and 0.64 nM for BACE2), which was pre-incubated for one hour with the test compound, typically in about luL of DMSO according to a serial dilution, was added thereto. The assay was effectively started by the addition of FRET substrate (50 nM) and the combination was incubated for one hour. The FRET assay was terminated by the addition of tris buffer, which raised the pH to neutrality, and the fluorescence was determined. The FRET substrate was a peptide with commercially available fluorophore and quencher, on opposite sides of the BACE cleavage site. The specific FRET substrate used in this assay was made by Amgen in-house. Commercially available FRET substrates, for example, the FRET substrate offered with the BACE1 FRET Assay Kit sold by ThermoFisher Scientific (Catalog Number P2985), may be used in this assay with the appropriate modifications, which are within the purview of the ability of a person with ordinary skill in the art. Proteolytic cleavage of the FRET substrate released quenching of fluorescence (excitation 488 nm and emission 590 nm).
Target sequence in this assay (P56817 46-501): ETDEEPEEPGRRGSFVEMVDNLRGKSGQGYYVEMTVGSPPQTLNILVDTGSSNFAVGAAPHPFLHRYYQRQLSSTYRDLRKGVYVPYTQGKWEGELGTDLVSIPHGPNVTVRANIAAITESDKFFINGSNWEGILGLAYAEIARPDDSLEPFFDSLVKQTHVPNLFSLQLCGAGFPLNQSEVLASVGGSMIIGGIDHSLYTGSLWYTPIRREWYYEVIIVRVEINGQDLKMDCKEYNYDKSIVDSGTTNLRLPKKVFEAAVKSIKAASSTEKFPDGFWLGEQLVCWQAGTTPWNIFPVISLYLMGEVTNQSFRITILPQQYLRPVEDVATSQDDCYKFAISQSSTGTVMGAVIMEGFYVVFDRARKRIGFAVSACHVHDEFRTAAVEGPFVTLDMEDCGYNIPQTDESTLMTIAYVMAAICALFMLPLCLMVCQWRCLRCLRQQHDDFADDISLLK

human recombinant BACE2 = human recombinant BACE2 (Homo sapiens (Human), UniProt Q9Y5Z0); assay: In vitro enzymatic BACE2 FRET assay; type: biochemical; conditions: pH 4.5, 1 h pre-incubation, read-out: BACE2 Enzyme IC50
Sequence of human recombinant BACE2 (Q9Y5Z0 63-518): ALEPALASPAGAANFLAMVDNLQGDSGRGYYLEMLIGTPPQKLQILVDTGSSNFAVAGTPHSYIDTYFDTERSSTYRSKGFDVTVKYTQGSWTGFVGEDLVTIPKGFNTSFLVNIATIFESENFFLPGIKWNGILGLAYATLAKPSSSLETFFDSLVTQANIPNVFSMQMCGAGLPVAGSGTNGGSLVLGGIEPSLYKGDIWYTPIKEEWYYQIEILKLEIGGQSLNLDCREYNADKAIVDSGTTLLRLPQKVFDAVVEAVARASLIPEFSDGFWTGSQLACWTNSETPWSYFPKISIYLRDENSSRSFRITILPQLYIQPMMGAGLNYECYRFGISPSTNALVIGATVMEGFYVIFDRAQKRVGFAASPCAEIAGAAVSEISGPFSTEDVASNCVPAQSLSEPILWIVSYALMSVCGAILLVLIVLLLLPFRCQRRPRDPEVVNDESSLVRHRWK
Method: as §1, §2

BACE1 [2] = target: T1, BACE1; assay: In vitro BACE1 cell-based assay (Aβ40 in conditioned medium, HTRF); conditions: Aβ40 in conditioned medium of cells stably expressing APP, 24 h
Method: In Vitro BACE1 Cell-Based Assay
The cell-based assay measures inhibition or reduction of Aβ40 in conditioned medium of test compound treated cells expressing amyloid precursor protein. Cells stably expressing Amyloid Precursor Protein (APP) were plated at a density of 45K cells/well in 384 well plates (Corning/BioCoat 354663). The test compounds were then added to cells in 22-point dose response concentrations with the starting concentration being 62.5 μM. The compounds were diluted from stock solutions in DMSO and the final DMSO concentration of the test compounds on cells was 0.625%. The cells were cultivated overnight at 37° C. and 5% CO2 in DMEM supplemented with 10% FBS. After 24 h of incubation with the test compounds, the conditioned media was collected and the Aβ40 levels were determined using HTRF (Homogeneous Time Resolved Fluorescence). The IC50 of the compound was calculated from the percent of control or percent inhibition of Aβ 40 as a function of the concentration of the test compound.
The HTRF to detect Aβ40 was performed in 384 well plates (Costar 3658). The antibody pair that were used to detect Aβ 40 from cell supernatants were ConfAb40 antibody (Amgen in-house) and biotinylated 6E10 (BIOLEGEND). As an alternative to ConfAb40, a commercially available antibody, Anti-beta Amyloid 1-40 antibody [BDI350] from Abcam, Cambridge, Mass. 02139-1517 (Product code: ab20068), may be used in this assay. The concentrations were 0.35 μg/mL of ConfAb40 antibody and 1.33 μg/mL of 6E10-biotinylated antibody, as well as 4.5 μg/mL of Streptavidin Allophycocyanin Conjugate (ThermoFisher Scientific) in HTRF Buffer (1M Hepes pH 7.5, 1M NaCL, 1% BSA, 0.5% Tween 20).
The conditioned media was incubated with above antibodies and Streptavidin Allophycocyanin Conjugate for 30-60 minutes at 23° C. The final readout was performed on Envision from PerkinElmer.
Target sequence in this assay (P56817 46-501, species assumed): as the sequence (P56817 46-501) above

Recombinant CatD = Recombinant CatD (Homo sapiens (Human), UniProt P07339); assay: In vitro enzymatic Cathepsin D (CatD) FRET assay; type: biochemical; conditions: pH 3.5, 1 h pre-incubation, read-out: Cat D Enzyme IC50
Sequence of Recombinant CatD (P07339 65-412): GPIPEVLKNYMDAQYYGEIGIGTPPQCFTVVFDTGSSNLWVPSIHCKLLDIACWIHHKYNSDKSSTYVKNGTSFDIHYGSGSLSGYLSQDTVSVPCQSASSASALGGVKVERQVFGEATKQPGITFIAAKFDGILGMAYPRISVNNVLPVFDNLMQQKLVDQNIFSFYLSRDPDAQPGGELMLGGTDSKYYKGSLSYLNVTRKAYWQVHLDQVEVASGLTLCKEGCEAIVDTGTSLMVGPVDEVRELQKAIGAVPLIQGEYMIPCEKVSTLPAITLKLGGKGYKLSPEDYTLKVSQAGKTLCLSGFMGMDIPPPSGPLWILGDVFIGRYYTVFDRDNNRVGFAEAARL
Method: In Vitro Enzymatic Cathepsin D (CatD) FRET Assay Recombinant CatD was expressed in CHO cells. The assay buffer for CatD was 0.05 M citrate pH 3.5, 10% DMSO final, 5 mM CHAPS. The CatD enzyme (9 nM) was pre-incubated for one hour with inhibitors, typically in about luL of DMSO according to a serial dilution, is added thereto. The assays was effectively started by the addition of different FRET substrates (20 nM for CatD) and the combination was incubated for one hour. The FRET assay was terminated with by addition of tris buffer, which raises the pH to neutrality, and the fluorescence was determined. The FRET substrate was a peptide with commercially available fluorophore and quencher, on opposite sides of the CatD cleavage site. The CatD substrate peptide sequence was based on sequence #1 of Table 1 from Gulnik et al., FEBS Lett. 413(2):379-384 (1997). Proteolytic cleavage of the FRET substrate released quenching of fluorescence (CatD excitation 500 nm and emission 580 nm). The in vitro CatD FRET assay data for each of the Examples is provided in Table 2, conducted by the first procedure described above. […] Thus, with this surprising selectivity profile, the compounds provided herein are believed to minimize, reduce or completely eliminate any risk of retinal atrophy and abnormal development of the eye and of the retinal pigmented epithelium as it relates to the normal function and activity of CatD.

SMILES | IC50 (BACE1 [1]) | IC50 (human recombinant BACE2) | IC50 (BACE1 [2]) | IC50 (Recombinant CatD)
COC(=O)[C@H]1C[C@@](C)(c2cc(/C=C(\F)c3ccc(Cl)cn3)ccc2F)N=C(N)S1 (single isomer, unassigned) [Example 104] | 212 nM | 185 nM | 468 nM | 133000 nM
COC(=O)[C@@H]1C[C@@](C)(c2cc(/C=C(\F)c3ccc(Cl)cn3)ccc2F)N=C(N)S1 (single isomer, unassigned) [Example 105] | 45 nM | 49 nM | 377 nM | 73700 nM
C[C@@]1(c2cc(/C=C(\F)c3ccc(Cl)cn3)ccc2F)C=CSC(N)=N1 [Example 100, (S,Z)-4-(5-(2-(5-chloropyridin-2-yl)-2-fluorovinyl)-2-fluorophenyl)-4-methyl-4H-1,3-thiazin-2-amine] | 220 nM | 191 nM | 357 nM | 36900 nM
C[C@@]1(c2cc(/C=C(\F)c3ccc(C#N)cn3)ccc2F)C=CSC(N)=N1 [Example 101, (S,Z)-6-(2-(3-(2-amino-4-methyl-4H-1,3-thiazin-4-yl)-4-fluorophenyl)-1-fluorovinyl)nicotinonitrile] | 98 nM | 601 nM | 49 nM | 52000 nM
C[C@@]1(c2cc(/C=C(\F)c3ccc(Cl)cn3)ccc2F)CCSC(N)=N1 [Example 102, (S,Z)-4-(5-(2-(5-chloropyridin-2-yl)-2-fluorovinyl)-2-fluorophenyl)-4-methyl-5,6-dihydro-4H-1,3-thiazin-2-amine] | 124 nM | 64 nM | 148 nM | 211000 nM
C[C@@]1(c2cc(/C=C(\F)c3ccc(C#N)cn3)ccc2F)CCSC(N)=N1 [Example 103, (S,Z)-6-(2-(3-(2-amino-4-methyl-5,6-dihydro-4H-1,3-thiazin-4-yl)-4-fluorophenyl)-1-fluorovinyl)nicotinonitrile] | 74 nM | 482 nM | 15 nM | 186000 nM
COC(=O)[C@]1(C)C[C@@](C)(c2cc(/C=C(\F)c3ccc(Cl)cn3)ccc2F)N=C(N)S1 [Example 106, (4S,6S)-methyl 2-amino-4-(5-((Z)-2-(5-chloropyridin-2-yl)-2-fluorovinyl)-2-fluorophenyl)-4,6-dimethyl-5,6-dihydro-4H-1,3-thiazine-6-carboxylate] | 54 nM | 75 nM | 215 nM | 91000 nM
COC(=O)[C@@]1(C)C[C@@](C)(c2cc(/C=C(\F)c3ccc(Cl)cn3)ccc2F)N=C(N)S1 [Example 107, (4S,6R)-methyl 2-amino-4-(5-((Z)-2-(5-chloropyridin-2-yl)-2-fluorovinyl)-2-fluorophenyl)-4,6-dimethyl-5,6-dihydro-4H-1,3-thiazine-6-carboxylate] | 68 nM | 90 nM | 522 nM | 282000 nM
COC(=O)[C@@]1(C)C[C@@](C)(c2cc(/C=C(\F)c3ccc(C#N)cn3)ccc2F)N=C(N)S1 [Example 108, (4S,6R)-methyl 2-amino-4-(5-((Z)-2-(5-cyanopyridin-2-yl)-2-fluorovinyl)-2-fluorophenyl)-4,6-dimethyl-5,6-dihydro-4H-1,3-thiazine-6-carboxylate] | 16 nM | 231 nM | 44 nM | 386000 nM
COC(=O)[C@]1(C)C[C@@](C)(c2cc(/C=C(\F)c3ccc(C#N)cn3)ccc2F)N=C(N)S1 [Example 109, (4S,6S)-methyl 2-amino-4-(5-((Z)-2-(5-cyanopyridin-2-yl)-2-fluorovinyl)-2-fluorophenyl)-4,6-dimethyl-5,6-dihydro-4H-1,3-thiazine-6-carboxylate] | 16 nM | 281 nM | 24 nM | 95600 nM
C[C@@]1(C(=O)N2CCOCC2)C[C@@](C)(c2cc(/C=C(\F)c3ccc(C#N)cn3)ccc2F)N=C(N)S1 [Example 110, 6-((Z)-2-(3-((4S,6S)-2-amino-4,6-dimethyl-6-(morpholine-4-carbonyl)-5,6-dihydro-4H-1,3-thiazin-4-yl)-4-fluorophenyl)-1-fluorovinyl)nicotinonitrile] | 4 nM | 130 nM | 2 nM | 250000 nM
C[C@]1(C(=O)N2CCOCC2)C[C@@](C)(c2cc(/C=C(\F)c3ccc(C#N)cn3)ccc2F)N=C(N)S1 [Example 111, 6-((Z)-2-(3-((4S,6R)-2-amino-4,6-dimethyl-6-(morpholine-4-carbonyl)-5,6-dihydro-4H-1,3-thiazin-4-yl)-4-fluorophenyl)-1-fluorovinyl)nicotinonitrile] | 98 nM | 1470 nM | 201 nM | 300000 nM
C#CCOc1cnc(/C(F)=C/c2ccc(F)c([C@]3(C)C[C@](C)(C(=O)NC)SC(N)=N3)c2)cn1 [Example 112, (4S,6R)-2-amino-4-(2-fluoro-5-((Z)-2-fluoro-2-(5-(2-propyn-1-yloxy)-2-pyrazinyl)ethenyl)phenyl)-N,4,6-trimethyl-5,6-dihydro-4H-1,3-thiazine-6-carboxamide] | 37 nM | 1300 nM | 11 nM | 79900 nM
C#CCOc1cnc(/C(F)=C/c2ccc(F)c([C@]3(C)C[C@@](C)(C(=O)NC)SC(N)=N3)c2)cn1 [Example 113, (4S,6S)-2-amino-4-(2-fluoro-5-((Z)-2-fluoro-2-(5-(2-propyn-1-yloxy)-2-pyrazinyl)ethenyl)phenyl)-N,4,6-trimethyl-5,6-dihydro-4H-1,3-thiazine-6-carboxamide] | 22 nM | 835 nM | 10 nM | 178000 nM
C#CCOc1cnc(/C(F)=C/c2ccc(F)c([C@]3(C)C[C@@](C)(C(=O)N4CCOCC4)SC(N)=N3)c2)cn1 [Example 114, ((4S,6S)-2-amino-4-(2-fluoro-5-((Z)-2-fluoro-2-(5-(prop-2-yn-1-yloxy)pyrazin-2-yl)vinyl)phenyl)-4,6-dimethyl-5,6-dihydro-4H-1,3-thiazin-6-yl)(morpholino)methanone] | 6 nM | 358 nM | 2 nM | 21800 nM
C#CCOc1cnc(/C(F)=C/c2ccc(F)c([C@]3(C)C[C@@](C)(C(=O)NCC(F)F)SC(N)=N3)c2)cn1 [Example 115, (4S,6S)-2-amino-N-(2,2-difluoroethyl)-4-(2-fluoro-5-((Z)-2-fluoro-2-(5-(prop-2-yn-1-yloxy)pyrazin-2-yl)vinyl)phenyl)-4,6-dimethyl-5,6-dihydro-4H-1,3-thiazine-6-carboxamide] | 24 nM | 760 nM | 18 nM | 40200 nM

— patent US10889579B2, “Thiazine derivatives as β-secretase inhibitors and methods of use” (AMGEN INC., priority 2016, dated 2021)
